# Reference: patent publication US11084800B2 (Achillion Pharmaceuticals, Inc., priority 2017, dated 2021)
# Target: Human Factor D (Homo sapiens (Human), UniProt P00746)
# Assay: Human Factor D Assay
# Type: biochemical
# Conditions: not given
# How it was run: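 Thioester substrate Z-L-Lys-SBz (100 μM) with Ellman's reagent DTNB (100 μM) reports activity of 80 nM human serum-derived enzyme, kinetically at 405 nm over 30 min. Compound preincubated 5 min, room temperature, pH 7.5 Tris/1 M NaCl; IC50 by nonlinear fit of rates.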
# Human Factor D, sequence (P00746 26-253): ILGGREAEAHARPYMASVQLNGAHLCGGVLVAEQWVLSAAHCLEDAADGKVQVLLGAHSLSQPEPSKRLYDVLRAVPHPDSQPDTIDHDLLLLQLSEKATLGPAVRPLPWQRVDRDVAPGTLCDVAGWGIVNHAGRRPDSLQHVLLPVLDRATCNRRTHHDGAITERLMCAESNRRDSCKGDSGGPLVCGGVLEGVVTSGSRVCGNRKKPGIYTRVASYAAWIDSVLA
row,SMILES,IC50
1,"CC(=O)c1nn(CC(=O)N2[C@H](C(=O)NC(Cc3ccccc3)Cc3ccccc3)C[C@@]3(C)C[C@@H]23)c2c(C)cc(-c3cnc(C)nc3)cc12 [Compound 505, (1R,3S,5R)-2-(2-(3-Acetyl-7-methyl-5-(2-methylpyrimidin-5-yl)-1H-indazol-1-yl)acetyl)-N-(1,3-diphenylpropan-2-yl)-5-methyl-2-azabicyclo[3.1.0]hexane-3-carboxamide]",1000 to 10000 nM

# Same assay, conditions: Factor D inhibition, assay of Example 10; read-out: IC5 (Stars)
row,SMILES,IC50
1,"CC(=O)c1nn(CC(=O)N2[C@H](C(=O)NC(C)(C)c3cccc(Cl)c3F)C[C@@]3(C)C[C@@H]23)c2c(C)cc(-c3cnc(C)nc3)cc12 [Compound 502, (1R,3S,5R)-2-(2-(3-acetyl-7-methyl-5-(2-methylpyrimidin-5-yl)-1H-indazol-1-yl)acetyl)-N-(2-(3-chloro-2-fluorophenyl)propan-2-yl)-5-methyl-2-azabicyclo[3.1.0]hexane-3-carboxamide]",< 1000 nM
2,"CC(=O)c1nn(CC(=O)N2[C@H](C(=O)Nc3cc(C(N)=O)cc(Br)n3)C[C@@]3(C)C[C@@H]23)c2ccc(-c3cnc(C)nc3)cc12 [Compound 503, (1R,3S,5R)-2-(2-(3-acetyl-5-(2-methylpyrimidin-5-yl)-1H-indazol-1-yl)acetyl)-N-(6-bromo-4-carbamoylpyridin-2-yl)-5-methyl-2-azabicyclo[3.1.0]hexane-3-carboxamide]",< 1000 nM
3,"CC(=O)c1nn(CC(=O)N2[C@H](C(=O)Nc3cc(OCc4ccccc4)cc(Br)n3)C[C@@]3(C)C[C@@H]23)c2ccc(-c3cnc(C)nc3)cc12 [Compound 504, (1R,3S,5R)-2-(2-(3-acetyl-5-(2-methylpyrimidin-5-yl)-1H-indazol-1-yl)acetyl)-N-(4-(benzyloxy)-6-bromopyridin-2-yl)-5-methyl-2-azabicyclo[3.1.0]hexane-3-carboxamide]",< 1000 nM
4,"CNC(=O)[C@@H]1C[C@@]2(C)C[C@H]2N1C(=O)Cn1nc(C(C)=O)c2cc(-c3cnc(C)nc3)cc(C)c21 [Compound 513, (1R,3S,5R)-2-(2-(3-acetyl-7-methyl-5-(2-methylpyrimidin-5-yl)-1H-indazol-1-yl)acetyl)-N,5-dimethyl-2-azabicyclo[3.1.0]hexane-3-carboxamide]",< 1000 nM
5,"CC(=O)c1nn(CC(=O)N2[C@H](C(=O)Nc3cc(CC(=O)O)cc(Br)n3)C[C@@]3(C)C[C@@H]23)c2ccc(-c3cnc(C)nc3)cc12 [Compound 514, 2-(2-((1R,3S,5R)-2-(2-(3-acetyl-5-(2-methylpyrimidin-5-yl)-1H-indazol-1-yl)acetyl)-5-methyl-2-azabicyclo[3.1.0]hexane-3-carboxamido)-6-bromopyridin-4-yl)acetic Acid]",< 1000 nM
6,"CCCc1cc(Br)nc(NC(=O)[C@@H]2C[C@@]3(C)C[C@H]3N2C(=O)Cn2nc(C(C)=O)c3cc(-c4cnc(C)nc4)ccc32)c1 [Compound 516, (1R,3S,5R)-2-(2-(3-Acetyl-5-(2-methylpyrimidin-5-yl)-1H-indazol-1-yl)acetyl)-N-(6-bromo-4-propylpyridin-2-yl)-5-methyl-2-azabicyclo[3.1.0]hexane-3-carboxamide]",1000 to 10000 nM
7,"CC(=O)c1nn(CC(=O)N2[C@H](C(=O)NC(CC(C)C)CC(C)C)C[C@@]3(C)C[C@@H]23)c2c(C)cc(-c3cnc(C)nc3)cc12 [Compound 517, (1R,3S,5R)-2-(2-(3-acetyl-7-methyl-5-(2-methylpyrimidin-5-yl)-1H-indazol-1-yl)acetyl)-N-(2,6-dimethylheptan-4-yl)-5-methyl-2-azabicyclo[3.1.0]hexane-3-carboxamide]",< 1000 nM
8,"CNCCCNC(=O)[C@@H]1C[C@@]2(C)C[C@H]2N1C(=O)Cn1nc(C(C)=O)c2cc(-c3cnc(C)nc3)ccc21 [Compound 519, (1R,3S,5R)-2-(2-(3-acetyl-5-(2-methylpyrimidin-5-yl)-1H-indazol-1-yl)acetyl)-5-methyl-N-(3-(methylamino)propyl)-2-azabicyclo[3.1.0]hexane-3-carboxamide]",1000 to 10000 nM
9,"CC(=O)c1nn(CC(=O)N2[C@H](C(=O)NCCCN(C)C)C[C@@]3(C)C[C@@H]23)c2ccc(-c3cnc(C)nc3)cc12 [Compound 520, (1R,3S,5R)-2-(2-(3-acetyl-5-(2-methylpyrimidin-5-yl)-1H-indazol-1-yl)acetyl)-N-(3-(dimethylamino)propyl)-5-methyl-2-azabicyclo[3.1.0]hexane-3-carboxamide]",1000 to 10000 nM
10,"CC(=O)c1nn(CC(=O)N2[C@H](C(=O)Nc3nc(Br)ccc3C)C[C@@]3(C)C[C@@H]23)c2c(CO)cc(-c3cnc(C)nc3)cc12 [Compound 526, (1R,3S,5R)-2-(2-(3-Acetyl-7-(hydroxymethyl)-5-(2-methylpyrimidin-5-yl)-1H-indazol-1-yl)acetyl)-N-(6-bromo-3-methylpyridin-2-yl)-5-methyl-2-azabicyclo[3.1.0]hexane-3-carboxamide]",< 1000 nM
11,"CC(=O)OCc1cc(-c2cnc(C)nc2)cc2c(C(C)=O)nn(CC(=O)N3[C@H](C(=O)Nc4nc(Br)ccc4C)C[C@@]4(C)C[C@@H]34)c12 [Compound 529, (3-Acetyl-1-(2-((1R,3S,5R)-3-((6-bromo-3-methylpyridin-2-yl)carbamoyl-5-methyl-2-azabicyclo[3.1.0]hexan-2-yl)-2-oxoethyl)-5-(2-methylpyrimidin-5-yl)-1H-indazol-7-yl)methyl acetate]",< 1000 nM
12,"CCc1cc(Br)nc(NC(=O)[C@@H]2C[C@@]3(C)C[C@H]3N2C(=O)Cn2nc(C(C)=O)c3cc(-c4cnc(C)nc4)ccc32)c1 [Compound 532, (1R,3S,5R)-2-(2-(3-acetyl-5-(2-methylpyrimidin-5-yl)-1H-indazol-1-yl)acetyl)-N-(6-bromo-4-ethylpyridin-2-yl)-5-methyl-2-azabicyclo[3.1.0]hexane-3-carboxamide]",< 1000 nM
13,"CC(=O)c1nn(CC(=O)N2[C@H](C(=O)NC(CCc3ccccc3)(CCc3ccccc3)C(=O)O)C[C@@]3(C)C[C@@H]23)c2c(C)cc(-c3cnc(C)nc3)cc12 [Compound 533, 2-((1R,3S,5R)-2-(2-(3-acetyl-7-methyl-5-(2-methylpyrimidin-5-yl)-1H-indazol-1-yl)acetyl)-5-methyl-2-azabicyclo[3.1.0]hexane-3-carboxamido)-2-phenethyl-4-phenylbutanoic acid]",> 10000 nM
14,"CC(=O)c1nn(CC(=O)N2[C@H](C(=O)Nc3cc(CC(N)=O)cc(Br)n3)C[C@@]3(C)C[C@@H]23)c2ccc(-c3cnc(C)nc3)cc12 [Compound 534, (1R,3S,5R)-2-(2-(3-acetyl-5-(2-methylpyrimidin-5-yl)-1H-indazol-1-yl)acetyl)-N-(4-(2-amino-2-oxoethyl)-6-bromopyridin-2-yl)-5-methyl-2-azabicyclo[3.1.0]hexane-3-carboxamide]",< 1000 nM

# Same assay, conditions: Table 8; Factor D 80 nM, substrate Z-L-Lys-SBz; read-out: IC50
row,SMILES,IC50
1,"Cc1ncc(-c2ccc3c(c2)c(C(=O)NCC(F)(F)F)nn3CC(=O)N2[C@H](C(=O)Nc3nc(Br)ccc3C)C[C@@]3(C)C[C@@H]23)cn1 [Compound 499, 1-(2-((1R,3S,5R)-3-((6-bromo-3-methylpyridin-2-yl)carbamoyl)-5-methyl-2-azabicyclo[3.1.0]hexan-2-yl)-2-oxoethyl)-5-(2-methylpyrimidin-5-yl)-N-(2,2,2-trifluoroethyl)-1H-indazole-3-carboxamide]",< 1000 nM
2,"Cc1ncc(-c2ccc3c(c2)c(C(=O)NCC(C)C)nn3CC(=O)N2[C@H](C(=O)Nc3nc(Br)ccc3C)C[C@@]3(C)C[C@@H]23)cn1 [Compound 500, 1-(2-((1R,3S,5R)-3-((6-bromo-3-methylpyridin-2-yl)carbamoyl)-5-methyl-2-azabicyclo[3.1.0]hexan-2-yl)-2-oxoethyl)-N-isobutyl-5-(2-methylpyrimidin-5-yl)-1H-indazole-3-carboxamide]",< 1000 nM
3,Cc1ncc(-c2cc(C#N)c3c(c2)c(C(N)=O)nn3CC(=O)N2[C@H](C(=O)Nc3nc(Br)ccc3C)C[C@@]3(C)C[C@@H]23)cn1 [Compound 515],< 1000 nM
4,"CCCCCCCNC(=O)[C@@H]1C[C@@]2(C)C[C@H]2N1C(=O)Cn1nc(C(C)=O)c2cc(-c3cnc(C)nc3)cc(C)c21 [Compound 527, (1R,3S,5R)-2-(2-(3-acetyl-7-methyl-5-(2-methylpyrimidin-5-yl)-1H-indazol-1-yl)acetyl)-N-heptyl-5-methyl-2-azabicyclo[3.1.0]hexane-3-carboxamide]",< 1000 nM
5,"CCCCCCCCNC(=O)[C@@H]1C[C@@]2(C)C[C@H]2N1C(=O)Cn1nc(C(C)=O)c2cc(-c3cnc(C)nc3)cc(C)c21 [Compound 528, (1R,3S,5R)-2-(2-(3-acetyl-7-methyl-5-(2-methylpyrimidin-5-yl)-1H-indazol-1-yl)acetyl)-5-methyl-N-octyl-2-azabicyclo[3.1.0]hexane-3-carboxamide]",1000 to 10000 nM
6,"CCCCCCCCCNC(=O)[C@@H]1C[C@@]2(C)C[C@H]2N1C(=O)Cn1nc(C(C)=O)c2cc(-c3cnc(C)nc3)cc(C)c21 [Compound 530, (1R,3S,5R)-2-(2-(3-acetyl-7-methyl-5-(2-methylpyrimidin-5-yl)-1H-indazol-1-yl)acetyl)-5-methyl-N-nonyl-2-azabicyclo[3.1.0]hexane-3-carboxamide]",1000 to 10000 nM
7,"CCCCCCCCCCNC(=O)[C@@H]1C[C@@]2(C)C[C@H]2N1C(=O)Cn1nc(C(C)=O)c2cc(-c3cnc(C)nc3)cc(C)c21 [Compound 531, (1R,3S,5R)-2-(2-(3-acetyl-7-methyl-5-(2-methylpyrimidin-5-yl)-1H-indazol-1-yl)acetyl)-N-decyl-5-methyl-2-azabicyclo[3.1.0]hexane-3-carboxamide]",> 10000 nM
8,CCCCCCCCCCCCCCCC(=O)NCCCC[C@H](NC(=O)[C@H](CCC(=O)O)NC(=O)[C@H](Cc1ccc(O)cc1)NC(=O)[C@H](CCC(=O)O)NC(C)=O)C(=O)N[C@@H](CCC(=O)O)C(=O)N[C@@H](Cc1ccc(O)cc1)C(=O)N[C@@H](CCC(=O)O)C(=O)NCCOCCOCCOCCOCCOCCOCCOCCOCCOCCOCCOCCOCCOCCOCCOCCOCCOCCOCCOCCOCCOCCOCCOCCOCCC(=O)NC[C@@]12C[C@@H](C(=O)Nc3nc(Br)ccc3C)N(C(=O)Cn3nc(C(C)=O)c4cc(-c5cnc(C)nc5)cc(C)c43)[C@@H]1C2 [Compound 535],1000 to 10000 nM
